Data reported in patent publication US11492325B2, “Compounds as inhibitors of sodium channels” (Human BioMolecular Research Institute, priority 2016, dated 2022).
Structures can show the parent of a compound that is named as a salt. Where two headings read alike, the source gives them in different places.

Assays:
[1] = test system: cardiomyocytes derived from hiPSCs from a LQTS3 patient; conditions: for LQT-Cessation Dose / LQT-Fold Shortening: LQT3 cardiomyocytes; for LQT-Fold (prolongation): cell in fold shortening column marked (prolongation)
[2] = test system: cardiomyocytes derived from hiPSCs from a LQTS3 patient; assay: cells; conditions: Homo sapiens, Cardiomyocyte
[3] = test system: normal human induced pluripotent stem cell (hiPSC) cardiomyocyte; conditions: normal hiPSC cardiomyocytes; for WT-Fold Prolongation: APD
[4] = molecular target: hERG potassium channel (IKr) (Homo sapiens, UniProt Q12809); assay: Automated patch clamp, hERG (IKr) expressed in CHO cells; conditions: for IC50: hERG (IKr) IC50, CHO cells
hERG potassium channel (IKr), sequence (Q12809 whole entry): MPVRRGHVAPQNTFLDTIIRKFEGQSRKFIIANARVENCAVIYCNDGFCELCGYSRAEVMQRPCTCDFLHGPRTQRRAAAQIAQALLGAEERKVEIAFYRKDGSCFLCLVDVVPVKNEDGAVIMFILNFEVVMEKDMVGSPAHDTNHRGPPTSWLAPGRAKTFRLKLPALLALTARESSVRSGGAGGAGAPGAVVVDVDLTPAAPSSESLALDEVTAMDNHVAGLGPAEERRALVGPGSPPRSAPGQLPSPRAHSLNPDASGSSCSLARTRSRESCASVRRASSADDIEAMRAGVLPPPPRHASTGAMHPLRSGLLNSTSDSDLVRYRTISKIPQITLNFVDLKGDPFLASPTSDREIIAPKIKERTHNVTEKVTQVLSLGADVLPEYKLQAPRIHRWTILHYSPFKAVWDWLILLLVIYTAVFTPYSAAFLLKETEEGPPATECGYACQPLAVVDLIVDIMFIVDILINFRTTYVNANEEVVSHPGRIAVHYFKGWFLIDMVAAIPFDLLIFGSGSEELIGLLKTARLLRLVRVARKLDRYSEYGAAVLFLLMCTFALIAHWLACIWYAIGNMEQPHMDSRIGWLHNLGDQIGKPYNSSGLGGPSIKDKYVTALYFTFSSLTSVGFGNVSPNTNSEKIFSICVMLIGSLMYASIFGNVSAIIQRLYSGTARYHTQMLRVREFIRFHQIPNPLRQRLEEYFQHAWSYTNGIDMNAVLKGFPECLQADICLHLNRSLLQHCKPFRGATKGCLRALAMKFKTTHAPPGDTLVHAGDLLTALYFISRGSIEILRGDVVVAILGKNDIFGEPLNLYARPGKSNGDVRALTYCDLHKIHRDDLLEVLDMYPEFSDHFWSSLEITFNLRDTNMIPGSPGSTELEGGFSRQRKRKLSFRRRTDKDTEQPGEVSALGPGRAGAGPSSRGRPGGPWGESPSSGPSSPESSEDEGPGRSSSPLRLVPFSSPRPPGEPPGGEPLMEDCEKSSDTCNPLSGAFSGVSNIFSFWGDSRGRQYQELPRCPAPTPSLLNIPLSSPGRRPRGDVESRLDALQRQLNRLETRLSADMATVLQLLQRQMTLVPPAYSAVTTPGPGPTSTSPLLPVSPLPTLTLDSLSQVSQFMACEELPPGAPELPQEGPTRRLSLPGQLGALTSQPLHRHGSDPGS

[5] = molecular target: Nav1.5 sodium channel, peak current (INaP) (Homo sapiens, UniProt Q14524, form not given); assay: in vitro; conditions: Peak Na+ (INaP) IC50
Description: (§1) This provided data to investigate the physiology and action of target compounds on individual ion channels. The assay used standardized protocols for culturing and conducting conventional whole cell recording that have been previously developed for both current and voltage-clamp to characterize action potentials using transfected cells. Briefly, the Nav1.5 sodium channel was transfected into HEK293 cells. […] Briefly, cells were plated on 0.1% gelatin-coated 35-mm plastic Petri dishes. […] Data was reported as IC50 values±STD (Table 1).

[6] = molecular target: Nav1.5 sodium channel transfected into HEK293 cells (Homo sapiens, UniProt Q14524); assay: in vitro
Description: as §1

[7] = read-out: LQT-IC50 (uM)-Shortening
[8] = ratio peak/late IC50, Example 2
[9] = read-out: LQT-IC50 (prolongation)

SMILES	LQT-Cessation Dose [1]	WT-EAD Dose [3] [µM]	IC50 [2, 7] [µM]	IC50 [4] [µM]	IC50 [5] [µM]	IC50 ([4]; Example 2) [µM]	LQT-Fold Shortening [1]	WT-Fold Prolongation [3]	DKr/NaL ([4]; ratio hERG IC50/late Na IC50)	DNaP/Kr ([4]; ratio peak Na IC50/hERG IC50)	IC50 [6] [µM]	DNap/NaL ([6]; ratio peak IC50/late IC50)	Cessation of Beating [3]	WT-Prolongation Dose [3]	DKr/NaL ([4]; ratio, Example 2)	DNaP/Kr ([4]; ratio, Example 2)	DNap/NaL [6, 8]	LQT-Fold (prolongation) [1]	IC50 [2, 9] [µM]
Cc1cccc(C)c1OCC(C)N (racemic) [racemic Mexiletine]			1.83		183	54													
C[C@@H](N)COc1ccccc1.Cl [Compound 71, (R)-1-phenoxypropan-2-amine hydrochloride]	None	200						1.997					None					1.214 (prolongation)	194
C[C@H](N)COc1ccccc1.Cl [Compound 72]	None	133						2.93					None					1.133 (prolongation)	129
Cc1cccc(C)c1OCC(N)C1CCCCC1.Cl (stereo not shown) [Compound 73]	66 µM		0.082				1.136	None					66 µM	None					
Cl.NC(COc1cccc(C(F)(F)F)c1)c1ccccc1 (stereo not shown) [Compound 81, 1-phenyl-2-(3-(trifluoromethyl)phenoxy)ethan-1-amine]	66 µM		4.07				1.539	None					66 µM	None					
CC(N)COc1cccc(C(F)(F)F)c1.Cl (stereo not shown) [Compound 85]	200 µM		31.3				1.661	None					200 µM	None					

Continued, in another order:

LQT-Cessation Dose [1]	WT-EAD Dose [3] [µM]	SMILES	IC50 [2, 7] [µM]	IC50 [4] [µM]	IC50 [5] [µM]	IC50 ([4]; Example 2) [µM]	LQT-Fold Shortening [1]	WT-Fold Prolongation [3]	DKr/NaL ([4]; ratio hERG IC50/late Na IC50)	DNaP/Kr ([4]; ratio peak Na IC50/hERG IC50)	IC50 [6] [µM]	DNap/NaL ([6]; ratio peak IC50/late IC50)	Cessation of Beating [3]	WT-Prolongation Dose [3]	DKr/NaL ([4]; ratio, Example 2)	DNaP/Kr ([4]; ratio, Example 2)	DNap/NaL [6, 8]	LQT-Fold (prolongation) [1]	IC50 [2, 9] [µM]
None	200	Cc1cccc(C)c1OCC(C)N (racemic) [Compound 1, Mexiletine, reference compound]	1.83	54	183														
None	200	Cc1cccc(C)c1OC[C@@H](C)N [Compound 2a, (R)-(−)-Mexiletine Hydrochloride, reference compound]	0.96	54	128														
None	200	Cc1cccc(C)c1OC[C@H](C)N [Compound 2b, (S)-(+)-Mexiletine Hydrochloride, reference compound]	0.8	84	129														
None	200	Cc1ccccc1OCC(C)N (stereo not shown) [Compound 9, 1-(2-Methylphenoxy)propan-2-amine]	0.76	98	162		1.28	2.363	1.9	1.7	52	3.1							
200 µM	66	Cc1cccc(C)c1OCC(N)C1CC1 (stereo not shown) [Compound 10]	0.8	30	130		1.162	2.262	4.1	4.3	7.3	18.0							
133 µM	22	CNC(C)COc1c(C)cccc1C (stereo not shown) [Compound 11, 1-(2,6-dimethylphenoxy)-N-methylpropan-2-amine]	1.48	44	124		1.112	2.194	1.2	2.8	36	3.4							
None		Cc1cccnc1OCC(O)c1ccccc1 (stereo not shown) [Compound 21]		100	129	> 100	1.23	None	4.7	1.3		6.1	None	None	>4.7	1.3	6.1		
66 µM		Cc1cccc(OCC(N)c2ccccc2)c1C (stereo not shown) [Compound 35, 2-(2,3-dimethylphenoxy)-1-phenylethanamine]			10.9	9.2	1.406	None			1.03		133 µM	None	8.9	1.2	10.6		
